Experiments:
BxPC-3 cells = test: Xenograft mouse model, human pancreatic adenocarcinoma; format: in vivo, mice
Method: (§1) Several xenograft mouse models were prepared: • 1) imatinib-resistant leukemia by subcutaneously implanting Ba/F3 T315I cells (1×10^8 cell/mL in sterile PBS), into the right flank of athymic nude male mice (HSD, 6-7 weeks old). When the tumor volume reached approximately 50 mm^3, mice were assigned randomly to either vehicle alone or OR0512 treatment groups (five mice per group). Mice were treated with either vehicle (DMSO) or OR0512 (40 mg/kg q.d.; per os for 11 consecutive days). • 2) human pancreatic adenocarcinoma model by subcutaneously implanting BxPC-3 cells (1×10^7 cell/mL in sterile PBS), into the right flank of athymic nude male mice (HSD, 6-7 weeks old). […]
(§2) Tumor volumes in mm^3 were determined three times a week with a digital caliper and calculated using the following formula: Tumor Volume (mm^3)=length (mm)×width (mm)×width (mm)×½. Body weight was measured three times a week, and mice were observed daily for monitoring signs of stress to detect possible toxicities. […] Data were analyzed with Prism 5.0b (GraphPad Software) by one-way ANOVA with Bonferroni post hoc. Tumor Growth Inibition (TGI) is calculated as the percent decrease of tumor growth at the end of the study in the OR0512 treatment group in comparison to the vehicle alone treatment group.

Ba/F3 T315I cells = test: Xenograft mouse model, imatinib-resistant leukemia (CML); format: in vivo, mice
Method: as §1, §2

H1975 cells = test: Xenograft mouse model, human NSCLC with EGFR mutations; format: in vivo, mice
Method: as §1, §2

HepG2 cells = test: Xenograft mouse model, human hepatocellular carcinoma; format: in vivo, mice
Method: as §1, §2

FGFR1 = molecular target: T1, FGFR1 (Homo sapiens, UniProt P11362); test: In vitro kinase assay (Z′-LYTE); format: biochemical; settings: read-out: % of inhibition of the kinase compared to the control
T1 construct: purchased Invitrogen
T1 sequence (P11362 22-822): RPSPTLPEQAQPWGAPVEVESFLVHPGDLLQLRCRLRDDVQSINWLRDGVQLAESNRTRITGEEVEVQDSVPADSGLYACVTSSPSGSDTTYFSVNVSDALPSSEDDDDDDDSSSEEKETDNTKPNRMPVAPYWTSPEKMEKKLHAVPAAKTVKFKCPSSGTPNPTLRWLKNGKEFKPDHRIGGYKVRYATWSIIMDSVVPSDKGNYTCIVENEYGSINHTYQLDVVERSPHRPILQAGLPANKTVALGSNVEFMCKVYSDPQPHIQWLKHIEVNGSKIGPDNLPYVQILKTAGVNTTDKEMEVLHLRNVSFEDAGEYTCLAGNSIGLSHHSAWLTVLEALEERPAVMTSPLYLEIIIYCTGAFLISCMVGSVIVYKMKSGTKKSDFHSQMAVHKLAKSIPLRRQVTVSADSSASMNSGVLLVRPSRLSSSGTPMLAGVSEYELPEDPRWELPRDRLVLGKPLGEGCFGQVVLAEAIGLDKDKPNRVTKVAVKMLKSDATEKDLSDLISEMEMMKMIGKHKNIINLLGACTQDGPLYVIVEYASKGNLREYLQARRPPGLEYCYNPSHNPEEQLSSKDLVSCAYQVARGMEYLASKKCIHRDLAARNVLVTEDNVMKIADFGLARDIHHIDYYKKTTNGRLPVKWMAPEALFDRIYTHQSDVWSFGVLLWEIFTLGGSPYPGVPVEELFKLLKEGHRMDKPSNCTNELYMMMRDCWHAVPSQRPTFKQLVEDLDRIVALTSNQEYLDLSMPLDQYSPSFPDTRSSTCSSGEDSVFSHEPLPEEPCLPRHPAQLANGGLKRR
Procedure, shortened: (§3)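 Read-out is a ratiometric FRET signal (donor/acceptor emission, 400 nm excitation) from a doubly labelled peptide, whose cleavage by a development protease depends on its phosphorylation state. ATP used at apparent Km in HEPES pH 7.5 buffer with MgCl2; compounds at 100 nM, or 10 μM for ABL T315I.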

FYN = molecular target: T2, FYN (Homo sapiens, UniProt P06241); test: In vitro kinase assay (Z′-LYTE); format: biochemical; settings: read-out: percent inhibition of the kinase compared to the control
T2 construct: purchased Invitrogen
Procedure, shortened: as §3

PDGFRA (PDGFR alpha) = molecular target: T3, PDGFRA (PDGFR alpha) (Homo sapiens, UniProt P16234); test: In vitro kinase assay (Z′-LYTE); format: biochemical; settings: read-out: % of inhibition of the kinase compared to the control
T3 construct: purchased Invitrogen
Procedure, shortened: as §3

EPHA2 = molecular target: T4, EPHA2 (Homo sapiens, UniProt P29317); test: In vitro kinase assay (Z′-LYTE); format: biochemical; settings: read-out: percent inhibition of the kinase compared to the control
T4 construct: purchased Invitrogen
Procedure, shortened: as §3

BTK = molecular target: T5, BTK (Homo sapiens, UniProt Q06187); test: In vitro kinase assay (Z′-LYTE); format: biochemical; settings: read-out: percent inhibition of the kinase compared to the control
T5 construct: purchased Invitrogen
Procedure, shortened: as §3

BRAF V600E = molecular target: T6, BRAF V600E (Homo sapiens, UniProt P15056, V600E); test: In vitro kinase assay (Z′-LYTE); format: biochemical; settings: read-out: percent inhibition of the kinase compared to the control
T6 construct: purchased Invitrogen
T6 sequence (P15056 whole entry V600E): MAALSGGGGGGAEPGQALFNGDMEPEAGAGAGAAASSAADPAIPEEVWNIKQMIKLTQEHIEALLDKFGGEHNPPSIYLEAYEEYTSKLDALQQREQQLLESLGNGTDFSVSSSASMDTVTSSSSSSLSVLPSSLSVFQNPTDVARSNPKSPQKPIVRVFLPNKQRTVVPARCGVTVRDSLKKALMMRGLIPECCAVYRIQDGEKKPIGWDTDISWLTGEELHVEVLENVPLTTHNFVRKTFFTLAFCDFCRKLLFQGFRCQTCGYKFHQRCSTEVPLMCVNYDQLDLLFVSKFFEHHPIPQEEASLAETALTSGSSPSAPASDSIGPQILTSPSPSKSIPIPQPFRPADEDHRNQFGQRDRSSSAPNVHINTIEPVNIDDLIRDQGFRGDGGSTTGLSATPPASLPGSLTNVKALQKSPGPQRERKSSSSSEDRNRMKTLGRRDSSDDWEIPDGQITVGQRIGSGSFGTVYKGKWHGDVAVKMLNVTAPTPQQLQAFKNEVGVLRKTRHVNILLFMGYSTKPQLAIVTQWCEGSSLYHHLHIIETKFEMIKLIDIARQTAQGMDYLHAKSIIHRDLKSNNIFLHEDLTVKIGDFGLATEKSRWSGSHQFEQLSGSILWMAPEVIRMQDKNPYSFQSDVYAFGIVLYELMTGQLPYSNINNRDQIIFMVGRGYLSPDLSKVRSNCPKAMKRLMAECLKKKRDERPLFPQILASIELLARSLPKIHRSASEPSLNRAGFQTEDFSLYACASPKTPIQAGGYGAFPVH
Procedure, shortened: as §3

SRC = molecular target: T7, SRC (Homo sapiens, UniProt P12931); test: In vitro kinase assay (Z′-LYTE); format: biochemical; settings: read-out: % of inhibition of the kinase compared to the control
T7 construct: purchased Invitrogen
T7 sequence (P12931 whole entry): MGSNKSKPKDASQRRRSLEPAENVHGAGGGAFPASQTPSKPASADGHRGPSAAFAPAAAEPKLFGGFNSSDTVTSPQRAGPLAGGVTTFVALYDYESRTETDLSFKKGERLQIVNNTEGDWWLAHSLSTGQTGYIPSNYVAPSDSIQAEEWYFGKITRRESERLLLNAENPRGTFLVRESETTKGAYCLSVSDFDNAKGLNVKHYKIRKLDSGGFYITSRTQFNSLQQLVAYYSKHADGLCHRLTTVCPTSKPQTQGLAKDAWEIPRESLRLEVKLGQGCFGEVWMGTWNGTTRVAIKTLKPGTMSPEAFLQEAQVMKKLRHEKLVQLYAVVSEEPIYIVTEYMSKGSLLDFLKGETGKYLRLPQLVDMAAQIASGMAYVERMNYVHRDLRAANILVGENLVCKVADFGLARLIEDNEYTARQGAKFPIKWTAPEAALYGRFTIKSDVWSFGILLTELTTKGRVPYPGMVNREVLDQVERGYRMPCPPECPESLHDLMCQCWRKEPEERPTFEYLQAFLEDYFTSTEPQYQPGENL
Procedure, shortened: as §3

EPHA4 = molecular target: T8, EPHA4 (Homo sapiens, UniProt P54764); test: In vitro kinase assay (Z′-LYTE); format: biochemical; settings: read-out: percent inhibition of the kinase compared to the control
T8 construct: purchased Invitrogen
T8 sequence (P54764 20-986): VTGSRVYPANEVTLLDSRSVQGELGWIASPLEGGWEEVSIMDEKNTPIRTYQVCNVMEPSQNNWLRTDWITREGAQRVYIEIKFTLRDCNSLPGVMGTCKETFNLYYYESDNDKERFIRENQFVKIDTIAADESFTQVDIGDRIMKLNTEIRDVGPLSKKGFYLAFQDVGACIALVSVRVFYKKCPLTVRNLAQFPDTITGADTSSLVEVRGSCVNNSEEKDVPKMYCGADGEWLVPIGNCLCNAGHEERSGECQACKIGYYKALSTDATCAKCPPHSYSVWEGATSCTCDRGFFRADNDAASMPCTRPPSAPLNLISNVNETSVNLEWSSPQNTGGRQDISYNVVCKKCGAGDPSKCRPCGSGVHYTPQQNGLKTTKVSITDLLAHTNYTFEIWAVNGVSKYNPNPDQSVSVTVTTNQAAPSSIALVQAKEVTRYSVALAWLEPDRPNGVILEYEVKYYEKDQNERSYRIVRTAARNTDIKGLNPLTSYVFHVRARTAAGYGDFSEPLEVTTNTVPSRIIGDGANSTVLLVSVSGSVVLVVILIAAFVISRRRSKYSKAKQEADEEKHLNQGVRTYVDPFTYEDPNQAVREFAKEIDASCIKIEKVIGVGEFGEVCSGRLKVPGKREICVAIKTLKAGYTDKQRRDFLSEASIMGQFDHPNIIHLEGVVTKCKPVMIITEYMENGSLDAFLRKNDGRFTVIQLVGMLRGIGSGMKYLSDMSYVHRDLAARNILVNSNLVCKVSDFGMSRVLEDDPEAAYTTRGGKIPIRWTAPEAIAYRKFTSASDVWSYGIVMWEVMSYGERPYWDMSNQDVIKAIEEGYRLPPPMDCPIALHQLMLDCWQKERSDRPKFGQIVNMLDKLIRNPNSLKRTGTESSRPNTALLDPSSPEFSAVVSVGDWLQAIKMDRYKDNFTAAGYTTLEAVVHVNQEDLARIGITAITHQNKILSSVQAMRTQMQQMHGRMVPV
Procedure, shortened: as §3

LCK = molecular target: T9, LCK (Homo sapiens, UniProt P06239); test: In vitro kinase assay (Z′-LYTE); format: biochemical; settings: read-out: percent inhibition of the kinase compared to the control
T9 construct: purchased Invitrogen
T9 sequence (P06239 whole entry): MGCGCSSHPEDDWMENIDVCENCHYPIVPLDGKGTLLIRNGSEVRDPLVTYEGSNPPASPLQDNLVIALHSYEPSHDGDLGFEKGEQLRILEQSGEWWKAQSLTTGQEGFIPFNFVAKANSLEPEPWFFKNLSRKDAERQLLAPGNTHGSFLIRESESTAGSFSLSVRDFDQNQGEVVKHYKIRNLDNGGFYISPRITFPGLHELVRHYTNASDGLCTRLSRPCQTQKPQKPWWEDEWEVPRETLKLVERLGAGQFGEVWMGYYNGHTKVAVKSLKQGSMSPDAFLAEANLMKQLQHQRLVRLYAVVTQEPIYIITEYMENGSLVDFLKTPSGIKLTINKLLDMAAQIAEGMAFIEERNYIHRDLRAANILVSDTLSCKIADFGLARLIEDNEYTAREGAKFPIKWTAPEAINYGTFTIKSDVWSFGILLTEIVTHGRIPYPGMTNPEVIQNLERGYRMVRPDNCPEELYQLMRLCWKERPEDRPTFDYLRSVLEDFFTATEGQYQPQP
Procedure, shortened: as §3

KDR (VEGFR2) = molecular target: T10, KDR (VEGFR2) (Homo sapiens, UniProt P35968); test: In vitro kinase assay (Z′-LYTE); format: biochemical; settings: read-out: % of inhibition of the kinase compared to the control
T10 construct: purchased Invitrogen
T10 sequence (P35968 20-1356): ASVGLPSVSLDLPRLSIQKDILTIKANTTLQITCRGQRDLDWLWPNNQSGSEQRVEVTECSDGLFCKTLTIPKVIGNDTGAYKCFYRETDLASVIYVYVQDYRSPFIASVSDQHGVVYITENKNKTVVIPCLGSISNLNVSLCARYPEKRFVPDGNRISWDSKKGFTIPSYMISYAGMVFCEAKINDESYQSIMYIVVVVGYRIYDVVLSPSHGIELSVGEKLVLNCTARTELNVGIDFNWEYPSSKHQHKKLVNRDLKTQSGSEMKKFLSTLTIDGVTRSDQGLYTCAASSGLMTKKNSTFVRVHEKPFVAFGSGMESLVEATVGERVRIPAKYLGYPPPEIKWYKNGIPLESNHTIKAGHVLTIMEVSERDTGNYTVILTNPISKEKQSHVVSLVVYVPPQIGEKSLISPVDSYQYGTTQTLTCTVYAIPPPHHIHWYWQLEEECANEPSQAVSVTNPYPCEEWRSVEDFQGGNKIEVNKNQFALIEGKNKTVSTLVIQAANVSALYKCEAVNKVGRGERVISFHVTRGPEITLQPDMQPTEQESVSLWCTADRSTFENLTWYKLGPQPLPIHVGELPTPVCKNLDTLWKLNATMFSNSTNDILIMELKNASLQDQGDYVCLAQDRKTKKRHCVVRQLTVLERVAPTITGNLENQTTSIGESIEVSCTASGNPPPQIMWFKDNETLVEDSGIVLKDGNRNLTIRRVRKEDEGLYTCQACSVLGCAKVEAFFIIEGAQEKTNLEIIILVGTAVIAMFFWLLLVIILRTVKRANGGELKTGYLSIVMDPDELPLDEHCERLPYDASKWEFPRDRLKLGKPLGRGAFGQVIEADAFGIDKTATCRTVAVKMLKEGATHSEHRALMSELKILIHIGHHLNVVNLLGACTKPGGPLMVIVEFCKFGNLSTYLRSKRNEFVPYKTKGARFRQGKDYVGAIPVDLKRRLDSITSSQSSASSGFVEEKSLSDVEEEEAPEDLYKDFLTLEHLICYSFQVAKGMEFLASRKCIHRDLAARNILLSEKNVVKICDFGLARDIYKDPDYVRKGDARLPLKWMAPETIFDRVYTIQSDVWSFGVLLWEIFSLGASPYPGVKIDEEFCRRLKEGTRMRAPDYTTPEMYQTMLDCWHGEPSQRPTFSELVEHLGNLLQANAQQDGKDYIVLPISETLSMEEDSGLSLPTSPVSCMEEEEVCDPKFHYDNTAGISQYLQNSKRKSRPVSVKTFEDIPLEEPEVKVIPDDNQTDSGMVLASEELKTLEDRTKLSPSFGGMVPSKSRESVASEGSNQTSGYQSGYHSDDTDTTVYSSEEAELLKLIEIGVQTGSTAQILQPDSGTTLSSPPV
Procedure, shortened: as §3

ABL G250E = molecular target: T11, ABL G250E (Homo sapiens, UniProt P00519, G250E); test: In vitro kinase assay (Z′-LYTE); format: biochemical; settings: read-out: percent inhibition of the kinase compared to the control
T11 construct: purchased Invitrogen
Procedure, shortened: as §3

inhibition at 0.1 µM (FGFR1): ≥ 50%
inhibition at 0.1 µM (FYN): > 50%
inhibition at 0.1 µM (PDGFRA (PDGFR alpha)): ≥ 50%
inhibition at 0.1 µM (EPHA2): > 50%
inhibition at 0.1 µM (BTK): > 50%
inhibition at 0.1 µM (BRAF V600E): > 50%
inhibition at 0.1 µM (SRC): ≥ 50%
inhibition at 0.1 µM (EPHA4): > 50%
inhibition at 0.1 µM (LCK): > 50%
inhibition at 0.1 µM (KDR (VEGFR2)): ≥ 50%
inhibition at 0.1 µM (ABL G250E): > 50%
Structure (SMILES): COC(=O)c1cc2cc(NCc3cc(NC(=O)c4ccc(CN5CCN(C)CC5)c(C(F)(F)F)c4)ccc3C)cnc2[nH]1 [OR0512]
Tumor Growth Inhibition - TGI (BxPC-3 cells; BxPC-3 xenograft, mice, 20 mg/kg q.d. per os, 32 days, versus vehicle, **P < 0.05): 85%**
decrease of tumor growth (in words) (BxPC-3 cells; xenografted mice, human pancreatic adenocarcinoma model): significantly induced a decrease of tumor growth
Tumor Growth Inhibition - TGI (Ba/F3 T315I cells; Ba/F3 T315I xenograft, mice, 40 mg/kg q.d. per os, 11 days, versus vehicle): 37%
decrease of tumor growth (in words) (Ba/F3 T315I cells; xenografted mice, imatinib-resistant CML model expressing Bcr-Abl T315I): slight decrease of tumor growth
Tumor Growth Inhibition - TGI (H1975 cells; H1975 xenograft, mice, 20 mg/kg q.d. per os, 22 days, versus vehicle, **P < 0.05): 73%**
decrease of tumor growth (in words) (H1975 cells; xenografted mice, human NSCLC (mutated form of EGFR) model): significantly induced a decrease of tumor growth
Tumor Growth Inhibition - TGI (HepG2 cells; HepG2 xenograft, mice, 20 mg/kg q.d. per os, 15 days, versus vehicle, **P < 0.05): 69%**
decrease of tumor growth (in words) (HepG2 cells; xenografted mice, human hepatocellular carcinoma model): significantly induced a decrease of tumor growth

Source: patent US9493455B2, “Azaindole derivatives as inhibitors of protein kinases” (ORIBASE PHARMA, priority 2012, dated 2016)
